Results published in patent US5733913A, “6-Aryl pyrido[2,3-d] pyrimidines and naphthyridines for inhibiting protein tyrosine kinase mediated cellular proliferation” (priority 1995, dated 1998).
Read-outs that look alike come from different tables or passages of the source.

Legend:
[1] = molecular target: T1, mouse PDGF-β receptor tyrosine kinase (Mus musculus, UniProt P05622); experiment: PDGF receptor tyrosine kinase assay; format: biochemical; conditions: for inhibition at 50 µM: read-out: Inhibition of Protein Tyrosine Kinases, PDGF, % Inhibition; for IC50: read-out: Inhibition of Protein Tyrosine Kinases, PDGF, IC50
T1 construct: a fragment of DNA that codes for the intracellular tyrosine kinase domain; made in house; host or cells: Sf9 insect cells (baculovirus), cell lysate
Text: (§1) PDGF and FGF Receptor Tyrosine Kinase Assays
(§2) Full length cDNAs for the mouse PDGF-β and human FGF-1 (flg) receptor tyrosine kinases were obtained from J. Escobedo and prepared as described in J. Biol. Chem., 262:1482-1487 (1991), and PCR primers were designed to amplify a fragment of DNA that codes for the intracellular tyrosine kinase domain. The fragment was melded into a baculovirus vector, cotransfected with AcMNPV DNA, and the recombinant virus isolated. SF9 insect cells were infected with the virus to overexpress the protein, and the cell lysate was used for the assay. […] Briefly, to each well was added 82.5 μL of incubation buffer containing 25 mM Hepes (pH 7.0), 150 mM NaCl, 0.1% Triton X-100, 0.2 mM PMSF, 0.2 mM Na3 VO4, 10 mM MnCl2, and 750 μg/mL of Poly (4:1) glutamate-tyrosine followed by 2.5 μL of inhibitor and 5 μL of enzyme lysate (7.5 μg/μL FGF-TK or 6.0 μg/μL PDGF-TK) to initiate the reaction. Following a 10 minute incubation at 25° C., 10 μL of γ^32 P-ATP (0.4 μCi plus 50 μM ATP) was added to each well and samples were incubated for an additional 10 minutes at 25° C. The reaction was terminated by the addition of 100 μL of 30% trichloroacetic acid (TCA) containing 20 mM sodium pyrophosphate and precipitation of material onto glass fiber filter mats (Wallac). […] Nonspecific activity was defined as radioactivity retained on the filters following incubation of samples with buffer alone (no enzyme). Specific enzymatic activity was defined as total activity (enzyme plus buffer) minus nonspecific activity.

[2] = test system: V-src kinase; experiment: V-src kinase assay; format: biochemical; conditions: at 50 μM
Description: (§3) V-src and C-src Kinase Assays
(§4) V-src or C-src kinase is purified from baculovirus infected insect cell lysates using an antipeptide monoclonal antibody directed against the N-terminal 2-17 amino acids. The antibody, covalently linked to 0.65-μm latex beads, is added to a suspension of insect cell lysis buffer comprised of 150 mM NaCl, 50 mM Tris pH 7.5, 1 mM DTT, 1% NP-40, 2 mM EGTA, 1 mM sodium vanadate, 1 mM PMSF, 1 μg/mL each of leupeptin, pepstatin, and aprotinin. Insect cell lysate containing either the c-src or v-src protein is incubated with these beads for 3-4 hours at 4° C. with rotation. At the end of the lysate incubation, the beads are rinsed 3 times in lysis buffer, resuspended in lysis buffer containing 10% glycerol, and frozen. These latex beads are thawed, rinsed three times in assay buffer which is comprised of 40 mM tris pH 7.5, 5 mM MgCl2, and suspended in the same buffer. In a Millipore 96-well plate with a 0.65 μm polyvinylidine membrane bottom are added the reaction components: 10-μL v-src or c-src beads, 10 μL of 2.5 mg/mL poly GluTyr substrate, 5 μM ATP containing 0.2 μCi labeled ^32 P-ATP, 5μL DMSO containing inhibitors or as a solvent control, and buffer to make the final volume 125 μL. The reaction is started at room temperature by addition of the ATP and quenched 10 minutes later by the addition of 125 μL of 30% TCA, 0.1M sodium pyrophosphate for 5 minutes on ice. The plate is then filtered and the wells washed with two 250-μL aliquots of 15% TCA, 0.1M pyrophosphate. The filters are punched, counted in a liquid scintillation counter, and the data examined for inhibitory activity in comparison to a known inhibitor such as erbstatin. The method is described more fully in J. Med. Chem., 37:598-609 (1994).

[3] = molecular target: T2, C-src kinase (Homo sapiens, UniProt P12931); experiment: C-src kinase assay; format: biochemical; conditions: for inhibition at 50 µM: read-out: Inhibition of Protein Tyrosine Kinases, C-src, % Inhibition; for IC50: read-out: Inhibition of Protein Tyrosine Kinases, C-src, IC50
T2 construct: made in house; host or cells: baculovirus-infected insect cells
Description: as §3
as §4, with “Insect cell lysate containing either the c-src or v-src protein is incubated with these beads for 3-4 hours at 4° C. with rotation.” left out

[4] = molecular target: T3, human FGF-1 (flg) receptor tyrosine kinase (Homo sapiens, UniProt P11362); experiment: FGF receptor tyrosine kinase assay; format: biochemical; conditions: for inhibition at 50 µM: read-out: Inhibition of Protein Tyrosine Kinases, FGF, % Inhibition; for IC50: read-out: Inhibition of Protein Tyrosine Kinases, FGF, IC50
T3 construct: a fragment of DNA that codes for the intracellular tyrosine kinase domain; made in house; host or cells: Sf9 insect cells (baculovirus), cell lysate
Text: as §1, §2

[5] = test system: PDGF receptor; experiment: PDGF receptor autophosphorylation in RASMC; format: cell-based, rat; conditions: PDGF-BB 30 ng/mL, read-out: Inhibition of PDGF Stimulated Receptor Auto Phosphorylation (IC50)
Description: Rat aorta smooth muscle cells (RASMC) were isolated from the thoracic aorta of rats and explanted according to the method of Ross, J. Cell. […] Cells were grown in Dulbecco's modified Eagle's medium (DMEM, Gibco) containing 10% fetal calf serum (FBS, Hyclone, Logan, Utah), 1% glutamine (Gibco) and 1% penicillin/streptomycin (Gibco). Cells were identified as smooth muscle cells by their "hill and valley" growth pattern and by fluorescent staining with a monoclonal antibody specific for SMC μ-actin (Sigma). RASMC were used between passages 5 and 20 for all experiments. Test compounds were prepared in dimethylsulfoxide (DMSO) in order to achieve consistency in the vehicle and to ensure compound solubility. Appropriate DMSO controls were simultaneously evaluated with the test compounds.
PDGF Receptor Autophosphorylation
RASMC were grown to confluency in 100 mm dishes. Growth medium was removed and replaced with serum-free medium and cells were incubated at 37° C. for an additional 24 hours. Test compounds were then added directly to the medium and cells incubated for an additional 2 hours. After 2 hours, PDGF-BB was added at a final concentration of 30 ng/mL for 5 minutes at 37° C. to stimulated autophosphorylation of the PDGF receptor. Following growth factor treatment, the medium was removed, and cells were washed with cold phosphate-buffered saline and immediately lysed with 1 mL of lysis buffer (50 mM HEPES[pH 7.5], 150 mM NaCl, 10% glycerol, 1% Triton X-100, 1 mM EDTA, 1 mMEGTA, 50 mM NaF, 1 mM sodium orthovanadate, 30 mM p-nitrophenyl phosphate, 10 mM sodium pyrophosphate, 1 mM phenylmethyl sulfonyl fluoride, 10 μg/mL aprotinin, and 10 μg/mL leupeptin). Lysates were centrifuged at 10,000×g for 10 minutes. […] Following the incubation, protein-A-sepharose beads were added for 2 hours with continuous mixing, and immune complexes bound to the beads washed 4 times with 1 mL lysis wash buffer. Immune complexes were solubilized in 30 μL of Laemmli sample buffer and electrophoresed in 4-20% SDS polyacrylamide gels. Following electrophoresis, separated proteins were transferred to nitrocellulose and immunoblotted with anti-phosphotyrosine antiserum. […] IC50 values were generated from the densitometric data.

T3 sequence (P11362 478-767 limits assumed): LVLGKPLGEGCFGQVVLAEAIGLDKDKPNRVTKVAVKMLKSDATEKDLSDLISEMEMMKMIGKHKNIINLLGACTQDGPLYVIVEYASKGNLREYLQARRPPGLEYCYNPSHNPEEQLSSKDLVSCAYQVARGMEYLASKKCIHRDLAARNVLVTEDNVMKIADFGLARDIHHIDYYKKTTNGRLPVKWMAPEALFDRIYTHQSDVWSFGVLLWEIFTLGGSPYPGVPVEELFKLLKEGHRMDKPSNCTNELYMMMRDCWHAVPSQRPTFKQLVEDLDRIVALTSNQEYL
T1 sequence (P05622 599-961 limits assumed): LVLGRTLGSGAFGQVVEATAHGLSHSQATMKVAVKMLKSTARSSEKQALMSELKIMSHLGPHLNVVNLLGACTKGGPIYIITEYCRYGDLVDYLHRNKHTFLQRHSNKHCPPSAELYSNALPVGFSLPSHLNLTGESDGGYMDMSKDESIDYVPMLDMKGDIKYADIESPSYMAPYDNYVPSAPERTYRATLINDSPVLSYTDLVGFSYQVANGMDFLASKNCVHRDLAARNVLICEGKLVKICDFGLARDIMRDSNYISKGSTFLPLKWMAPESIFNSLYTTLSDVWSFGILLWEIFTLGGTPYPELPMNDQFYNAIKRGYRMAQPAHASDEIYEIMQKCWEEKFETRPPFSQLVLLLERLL
T2 sequence (P12931 whole entry): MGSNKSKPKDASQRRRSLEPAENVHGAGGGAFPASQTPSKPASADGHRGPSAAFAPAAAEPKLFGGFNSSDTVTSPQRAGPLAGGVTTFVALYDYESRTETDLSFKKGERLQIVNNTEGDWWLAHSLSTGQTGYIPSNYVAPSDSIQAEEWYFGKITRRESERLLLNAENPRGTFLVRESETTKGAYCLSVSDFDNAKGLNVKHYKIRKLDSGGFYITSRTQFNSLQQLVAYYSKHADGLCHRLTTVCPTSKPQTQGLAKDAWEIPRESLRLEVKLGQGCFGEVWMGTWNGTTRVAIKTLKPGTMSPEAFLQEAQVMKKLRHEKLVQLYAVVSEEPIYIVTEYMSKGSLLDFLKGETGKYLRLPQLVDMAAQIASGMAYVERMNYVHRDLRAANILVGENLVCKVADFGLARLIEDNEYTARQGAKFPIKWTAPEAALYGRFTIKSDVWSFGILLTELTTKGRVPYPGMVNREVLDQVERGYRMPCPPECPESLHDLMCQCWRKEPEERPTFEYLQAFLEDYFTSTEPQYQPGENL

SMILES	inhibition at 50 µM [1]	Inhibition of Protein Tyrosine Kinases, V-src, % Inhibition [2]	inhibition at 50 µM ([3]; at 50 μM)	inhibition at 50 µM [4]	IC50 [4]	IC50 [3]	IC50 [5]	IC50 [1]	inhibition at 50 µM [3]
Nc1ncc2cc(-c3cccnc3)c(N)nc2n1 [Example 107, 6-Pyridin-3-yl-pyrido[2,3-d]pyrimidine-2,7-diamine]	20.5%	1.4%	37%	37.2%	–	–	–	–	–
Nc1ncc2cc(-c3ccccc3)c(N)nc2n1 [Example 81, 6-Phenyl-pyrido[2,3-d]pyrimidine-2,7-diamine]	–	-20.3%	67.5%	–	–	–	–	–	–
COc1cccc(-c2cc3cnc(N)nc3nc2N)c1 [Example 102, 6-(3-Methoxy-phenyl)-pyrido[2,3-d]pyrimidine-2,7-diamine]	44.4%	-8.2%	0.8%	–	3110 nM	–	–	–	–
COc1ccccc1-c1cc2cnc(N)nc2nc1N [Example 100, 6-(2-Methoxy-phenyl)-pyrido[2,3-d]pyrimidine-2,7-diamine]	22.3%	6.0%	46.6%	27.1%	–	–	–	–	–
Cc1cccc(-c2cc3cnc(N)nc3nc2N)c1C [Example 92, 6-(2,3-Dimethyl-phenyl)-pyrido[2,3-d]pyrimidine-2,7-diamine]	33.1%	-10.1%	44.5%	–	2010 nM	–	–	–	–
CNc1nc2nc(N)ncc2cc1-c1ccc(OC)cc1 [Example 13, 6-(4-Methoxyphenyl)-N^7-methyl-pyrido[2,3-d]pyrimidine-2,7-diamine]	18.2%	21.2%	15.9%	–	30300 nM	–	–	–	–
CCNC(=O)Nc1nc2nc(NCCN(CC)CC)ncc2cc1-c1c(Cl)cccc1Cl [Example 67, 1-[6-(2,6-Dichlorophenyl)-2-(2-diethylamino-ethyl-amino)-pyrido[2,3-d]pyrimidin-7-yl]-3-ethyl-urea]	–	–	–	–	1390 nM	1560 nM	9420 nM	–	–
CCN(CC)CCCNc1ncc2cc(-c3c(Cl)cccc3Cl)c(N)nc2n1 [Example 20, 7-Amino-6-(2,6-dichlorophenyl)-2-(3-diethylamino-propylamino)-pyrido[2,3-d]pyrimidine]	–	51.7%	–	–	2380 nM	748 nM	–	46100 nM	–
CCCS(=O)(=O)Nc1nc2nc(N)ncc2cc1-c1c(Cl)cccc1Cl [Example 106, Propane-1-sulfonic acid [2-amino-6-(2,6-dichlorophenyl)-pyrido[2,3-d]pyrimidin-7-yl]-amide]	–	–	–	–	361 nM	236 nM	–	4800 nM	–
Nc1ncc2cc(-c3c(Cl)ccc(Cl)c3Cl)c(N)nc2n1 [Example 85, 6-(2,3,6-Trichloro-phenyl)-pyrido[2,3-d]pyrimidine-2,7-diamine]	–	–	–	–	129 nM	4460 nM	–	7630 nM	–
Cc1cc(C)c(-c2cc3cnc(N)nc3nc2NC(=O)NC(C)(C)C)c(C)c1 [Example 97, 1-[2-Amino-6-(2,4,6-trimethyl-phenyl)-pyrido[2,3-d]pyrimidin-7-yl]-3-tert-butyl-urea]	–	–	–	–	340 nM	–	–	1730 nM	28.9%
CC(C)(C)NC(=O)Nc1nc2nc(N)ncc2cc1-c1ccccc1 [Example 82, 1-(2-Amino-6-phenyl-pyrido[2,3-d]pyrimidin-7-yl)-3-tert-butyl-urea]	–	–	77.6%	–	3710 nM	–	–	4670 nM	–
Nc1ncc2cc(-c3c(Cl)cccc3Cl)c(N)nc2n1 [Example 1, 2,7-Diamino-6-(2,6-dichlorophenyl)-pyrido[2,3-d]pyrimidine]	–	-2.4%	–	–	2990 nM	–	–	–	–
CCN(CC)CCCNc1ncc2cc(-c3c(C)cccc3C)c(N)nc2n1 [Example 114, N^2-(3-Diethylamino-propyl)-6-(2,6-dimethyl-phenyl)-pyrido[2,3-d]pyrimidine-2,7-diamine]	–	–	–	–	19200 nM	–	15900 nM	23900 nM	–
Nc1ncc2cc(-c3cccc(Cl)c3Cl)c(N)nc2n1 [Example 83, 6-(2,3-Dichlorophenyl)-pyrido[2,3-d]pyrimidine-2,7-diamine]	–	-9.8%	53.6%	–	1980 nM	–	–	42500 nM	–
COc1ccccc1NC(=O)Nc1nc2nc(NCCCN3CCN(C)CC3)ncc2cc1-c1c(Cl)cccc1Cl [Example 43, 1-{6-(2,6-Dichlorophenyl)-2-[3-(4-methyl-piperazin-1-yl)-propylamino]-pyrido[2,3-d]pyrimidin-7-yl}-3-(2-methoxy-phenyl)-urea]	–	–	–	–	91 nM	11 nM	–	405 nM	–
Nc1ncc2cc(-c3ccccn3)c(N)nc2n1 [Example 111, 6-Pyridin-2-yl-pyrido[2,3-d]pyrimidine-2,7-diamine]	–	-26.4%	15.7%	47.7%	–	–	–	23300 nM	–
Cc1cc(C)cc(-c2cc3cnc(N)nc3nc2NC(=O)NC(C)(C)C)c1 [Example 95, 1-[2-Amino-6-(3,5-dimethyl-phenyl)-pyrido[2,3-d]pyrimidin-7-yl]-3-tert-butyl-urea]	–	–	0%	–	605 nM	–	–	41600 nM	–
CN1CCN(CCCNc2ncc3cc(-c4c(Cl)cccc4Cl)c(NC(=O)Nc4ccc(C(F)(F)F)cc4)nc3n2)CC1 [Example 48, 1-{6-(2,6-Dichlorophenyl)-2-[3-(4-methyl-piperazin-1-yl)-propylamino]-pyrido[2,3-d]pyrimidin-7-yl}-3-(4-trifluoromethyl-phenyl)-urea]	–	–	–	–	613 nM	260 nM	–	5320 nM	–
